Results taken from patent US20260207602A1, “EGFR INHIBITORS” (Blueprint Medicines Corporation, priority 2022, published 2026).

Experiments:
[1] = molecular target: T1, EGFR L858R (Homo sapiens, UniProt P00533, L858R); assay: Biochemical EGFR inhibition assay (Caliper mobility shift), EGFR L858R; conditions: biochemical Caliper mobility shift assay, EGFR L858R enzyme; read-out: Enz EGFR L858R IC50
T1 construct: purchased SignalChem E10-122BG
Procedure, shortened: (§1)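 Recombinant EGFR mutant phosphorylates 2.5 μM 5-FAM peptide at 1.0 mM ATP or ATP Km, in 100 mM HEPES pH 7.5, 10 mM MgCl2, 1 mM DTT, 1% DMSO, 25 °C to 10–20% conversion, EDTA stop. Caliper mobility shift separation; apparent IC50 from percent activity versus log concentration.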

[2] = molecular target: intracellular phosphorylation of EGFR (Tyr1068) in PC-9 cells (Homo sapiens, UniProt P00533, DEL746-750); assay: PC-9 pEGFR AlphaLISA assay; assay type: cell-based; conditions: 4 hours incubation, read-out: Phos EGFR PC9 IC50
Procedure, shortened: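 PC-9 cells (EGFR del746-750) in phenol-free DMEM/10% FBS, adhered overnight, then exposed to 10-point 4-fold compound dilutions for 4 h at 37 °C. Lysates assayed for pEGFR Tyr1068 by AlphaLISA SureFire Ultra; IC50 from percent pEGFR inhibition vs log concentration.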

[3] = molecular target: T2, EGFR (d746-750) (Homo sapiens, UniProt P00533, DEL746-750); assay: Biochemical EGFR inhibition assay (Caliper mobility shift), EGFR (d746-750); conditions: biochemical Caliper mobility shift assay, EGFR Exon 19-del enzyme; read-out: Enz EGFR Exon 19-del IC50
T2 construct: purchased SignalChem E10-122JG
Procedure, shortened: as §1

T1 sequence (P00533 25-1210 L858R): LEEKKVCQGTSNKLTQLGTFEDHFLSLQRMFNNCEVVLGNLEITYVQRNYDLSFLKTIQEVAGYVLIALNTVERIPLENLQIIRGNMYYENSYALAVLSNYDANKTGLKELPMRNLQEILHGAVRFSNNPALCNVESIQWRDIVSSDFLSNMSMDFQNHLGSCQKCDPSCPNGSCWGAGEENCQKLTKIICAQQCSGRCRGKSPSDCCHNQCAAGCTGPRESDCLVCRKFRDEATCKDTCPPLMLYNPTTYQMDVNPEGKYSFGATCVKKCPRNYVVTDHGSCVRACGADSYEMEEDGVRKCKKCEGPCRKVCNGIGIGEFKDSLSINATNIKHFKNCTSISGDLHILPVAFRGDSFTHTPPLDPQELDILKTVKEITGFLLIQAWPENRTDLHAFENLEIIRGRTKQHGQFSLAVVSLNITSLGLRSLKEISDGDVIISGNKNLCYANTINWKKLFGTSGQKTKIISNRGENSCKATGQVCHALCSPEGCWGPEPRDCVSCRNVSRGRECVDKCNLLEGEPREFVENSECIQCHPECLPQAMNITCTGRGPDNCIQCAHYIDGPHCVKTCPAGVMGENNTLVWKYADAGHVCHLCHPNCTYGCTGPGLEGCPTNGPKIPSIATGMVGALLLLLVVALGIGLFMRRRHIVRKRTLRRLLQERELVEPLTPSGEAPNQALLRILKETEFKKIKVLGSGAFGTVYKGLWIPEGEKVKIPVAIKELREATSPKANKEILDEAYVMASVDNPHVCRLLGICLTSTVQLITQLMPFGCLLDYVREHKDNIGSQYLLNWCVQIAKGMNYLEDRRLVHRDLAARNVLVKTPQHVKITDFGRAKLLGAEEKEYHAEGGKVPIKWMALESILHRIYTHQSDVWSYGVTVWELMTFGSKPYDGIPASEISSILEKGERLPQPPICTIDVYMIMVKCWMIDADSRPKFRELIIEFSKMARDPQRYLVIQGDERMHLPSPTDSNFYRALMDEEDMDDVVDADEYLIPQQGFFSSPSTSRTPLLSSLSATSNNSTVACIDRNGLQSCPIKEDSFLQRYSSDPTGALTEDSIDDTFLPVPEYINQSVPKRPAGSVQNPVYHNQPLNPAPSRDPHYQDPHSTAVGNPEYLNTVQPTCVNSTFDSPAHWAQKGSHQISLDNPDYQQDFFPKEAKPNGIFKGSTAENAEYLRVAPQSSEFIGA
T2 sequence (P00533 with tags, fused parts or gaps DEL746-750 limits assumed): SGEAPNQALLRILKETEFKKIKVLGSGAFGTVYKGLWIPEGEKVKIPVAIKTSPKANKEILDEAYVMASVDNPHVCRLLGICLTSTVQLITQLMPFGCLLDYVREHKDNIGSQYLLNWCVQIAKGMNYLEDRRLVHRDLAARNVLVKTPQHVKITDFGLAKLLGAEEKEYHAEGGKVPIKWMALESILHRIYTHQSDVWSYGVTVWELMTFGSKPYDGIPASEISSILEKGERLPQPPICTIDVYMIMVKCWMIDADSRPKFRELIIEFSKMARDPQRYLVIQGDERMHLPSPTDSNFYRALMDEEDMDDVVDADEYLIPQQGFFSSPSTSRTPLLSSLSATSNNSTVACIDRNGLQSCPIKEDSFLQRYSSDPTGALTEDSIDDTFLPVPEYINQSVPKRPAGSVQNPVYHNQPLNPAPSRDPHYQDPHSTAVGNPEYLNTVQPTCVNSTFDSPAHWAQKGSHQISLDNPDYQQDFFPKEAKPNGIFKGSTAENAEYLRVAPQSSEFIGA
intracellular phosphorylation of EGFR (Tyr1068) in PC-9 cells, sequence (P00533 with tags, fused parts or gaps DEL746-750): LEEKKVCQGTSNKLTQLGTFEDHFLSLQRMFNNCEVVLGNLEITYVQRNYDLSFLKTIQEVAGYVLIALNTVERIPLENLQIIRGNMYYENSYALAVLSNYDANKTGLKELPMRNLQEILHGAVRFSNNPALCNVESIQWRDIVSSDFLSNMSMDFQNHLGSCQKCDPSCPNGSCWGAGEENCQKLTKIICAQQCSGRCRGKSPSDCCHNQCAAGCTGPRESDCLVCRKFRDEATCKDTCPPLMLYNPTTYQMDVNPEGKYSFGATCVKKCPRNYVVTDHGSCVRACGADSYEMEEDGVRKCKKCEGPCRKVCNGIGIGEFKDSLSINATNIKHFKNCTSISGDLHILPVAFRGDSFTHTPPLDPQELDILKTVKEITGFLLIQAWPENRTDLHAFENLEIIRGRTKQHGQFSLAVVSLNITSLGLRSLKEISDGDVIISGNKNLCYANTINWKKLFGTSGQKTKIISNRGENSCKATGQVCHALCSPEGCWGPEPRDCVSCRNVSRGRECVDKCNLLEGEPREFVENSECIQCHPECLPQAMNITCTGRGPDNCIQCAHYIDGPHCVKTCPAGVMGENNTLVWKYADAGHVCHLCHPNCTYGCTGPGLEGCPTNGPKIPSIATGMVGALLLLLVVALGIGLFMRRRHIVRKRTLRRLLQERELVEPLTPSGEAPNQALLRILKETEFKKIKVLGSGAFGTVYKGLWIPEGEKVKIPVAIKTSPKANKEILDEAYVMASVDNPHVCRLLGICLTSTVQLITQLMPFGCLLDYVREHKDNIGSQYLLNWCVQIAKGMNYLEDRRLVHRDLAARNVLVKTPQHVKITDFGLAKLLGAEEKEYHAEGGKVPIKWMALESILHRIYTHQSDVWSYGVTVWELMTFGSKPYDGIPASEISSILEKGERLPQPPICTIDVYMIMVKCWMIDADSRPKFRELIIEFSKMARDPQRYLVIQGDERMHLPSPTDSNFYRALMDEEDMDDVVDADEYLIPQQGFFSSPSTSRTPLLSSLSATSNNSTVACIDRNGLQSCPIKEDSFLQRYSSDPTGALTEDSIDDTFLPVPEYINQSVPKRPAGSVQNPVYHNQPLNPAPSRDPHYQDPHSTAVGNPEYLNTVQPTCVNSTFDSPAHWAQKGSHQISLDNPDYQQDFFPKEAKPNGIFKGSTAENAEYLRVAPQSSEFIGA

| Compound | IC50 [1] [nM] | IC50 [2] [nM] | IC50 [3] [nM] |
| --- | --- | --- | --- |
| C[C@@H]1CN(c2cc(O[C@H](C)C3COC3)c3c(Nc4ccc5ncsc5c4F)ncnc3c2)CCN1C (single isomer, unassigned) [Example 103] | 10.1 to 50 | ≤ 10 | ≤ 10 |
| CN(C)CCOc1cc(-c2cnn(C)c2)cc2ncnc(Nc3ccc4ncsc4c3)c12 [Example A60, N-(5-(2-(dimethylamino)ethoxy)-7-(1-methyl-1H-pyrazol-4-yl)quinazolin-4-yl)benzo[d]thiazol-6-amine] | 10.1 to 50 | 10.1 to 50 | ≤ 10 |
| C[C@@H]1CN(c2cc(O[C@@H](C)CN(C)C)c3c(Nc4ccc5ncsc5c4)ncnc3c2)C[C@H](C)O1 (single isomer, unassigned) [Example 149] | > 50.1 | 10.1 to 50 | 10.1 to 50 |
| Cn1cc(-c2cc(O[C@H]3CC[C@H]3O)c3c(Nc4ccc5ncsc5c4)ncnc3c2)cn1 [Example 185, (1R,2S)-2-((4-(benzo[d]thiazol-6-ylamino)-7-(1-methyl-1H-pyrazol-4-yl)quinazolin-5-yl)oxy)cyclobutan-1-ol] | ≤ 10 | ≤ 10 | ≤ 10 |
| Cn1cc(-c2cc(O[C@H]3CCNC[C@@H]3F)c3c(Nc4ccc5ncsc5c4)ncnc3c2)cn1 (single isomer, unassigned) [Example 346] | ≤ 10 | ≤ 10 | ≤ 10 |
| C[C@@H](Oc1cc(N2CCN(C)CC2)cc2ncnc(Nc3ccc4ncsc4c3)c12)C1COC1 (single isomer, unassigned) [Example 96] | ≤ 10 | 10.1 to 50 | ≤ 10 |
| Cn1cc(-c2cc(OC3COC3)c3c(Nc4ccc5ncsc5c4)ncnc3c2)c(OC(F)F)n1 [Example 250, N-(7-(3-(difluoromethoxy)-1-methyl-1H-pyrazol-4-yl)-5-(oxetan-3-yloxy)quinazolin-4-yl)benzo[d]thiazol-6-amine] | ≤ 10 | 10.1 to 50 | ≤ 10 |
| CN1CC[C@H](Oc2cc(-c3cnn(C)c3)cc3ncnc(Nc4ccc5ncsc5c4)c23)[C@@H](F)C1 (racemic) [Example 343, trans-N-(5-(((3S,4S)-3-fluoro-1-methylpiperidin-4-yl)oxy)-7-(1-methyl-1H-pyrazol-4-yl)quinazolin-4-yl)benzo[d]thiazol-6-amine] | ≤ 10 | ≤ 10 | ≤ 10 |
| COc1cc2ncnc(Nc3ccc4ncsc4c3)c2cc1NC(=O)C1CCCN(C)C1 (stereo not drawn) [Example 401, N-(4-(benzo[d]thiazol-6-ylamino)-7-methoxyquinazolin-6-yl)-1-methylpiperidine-3-carboxamide] | 10.1 to 50 | 10.1 to 50 | 10.1 to 50 |
| C[C@H]1CN(C)CCN1C(=O)Nc1cc2c(Nc3ccc4ncsc4c3)ncnc2cc1-c1ccn(C)n1 [Example 399, (S)-N-(4-(benzo[d]thiazol-6-ylamino)-7-(1-methyl-1H-pyrazol-3-yl)quinazolin-6-yl)-2,4-dimethylpiperazine-1-carboxamide] | ≤ 10 | ≤ 10 | ≤ 10 |
| CC(C)Oc1cc(-c2cnn(C)c2)cc2ncnc(Nc3ccc4scnc4c3)c12 [Example 254, N-(5-isopropoxy-7-(1-methyl-1H-pyrazol-4-yl)quinazolin-4-yl)benzo[d]thiazol-5-amine] | ≤ 10 | 10.1 to 50 | ≤ 10 |
| COc1cn(C)nc1-c1cc(OC2CCN(C)CC2)c2c(Nc3ccc4ncsc4c3F)ncnc2c1 [Example 319, 7-fluoro-N-(7-(4-methoxy-1-methyl-1H-pyrazol-3-yl)-5-((1-methylpiperidin-4-yl)oxy)quinazolin-4-yl)benzo[d]thiazol-6-amine] | 10.1 to 50 | ≤ 10 | ≤ 10 |
| CN1CC[C@@H](Oc2cc(-c3cnn(C)c3)cc3ncnc(Nc4ccc5ncsc5c4F)c23)[C@H](F)C1 [Example 349, 7-fluoro-N-(5-(((3R,4R)-3-fluoro-1-methylpiperidin-4-yl)oxy)-7-(1-methyl-1H-pyrazol-4-yl)quinazolin-4-yl)benzo[d]thiazol-6-amine] | ≤ 10 | ≤ 10 | ≤ 10 |
| CN1CCC[C@H](Oc2cc(-c3cn(C)nn3)cc3ncnc(Nc4ccc5ncsc5c4)c23)C1 [Example 247, (S)-N-(7-(1-methyl-1H-1,2,3-triazol-4-yl)-5-((1-methylpiperidin-3-yl)oxy)quinazolin-4-yl)benzo[d]thiazol-6-amine] | ≤ 10 | 10.1 to 50 | ≤ 10 |
| Cn1cc(-c2cc(O[C@H]3COC[C@@H]3O)c3c(Nc4ccc5ncsc5c4)ncnc3c2)cn1 (single isomer, unassigned) [Example A30] | ≤ 10 | > 50.1 | ≤ 10 |
| C[C@@H](Oc1cc(-c2cnn(C)c2)cc2ncnc(Nc3ccc4ncsc4c3)c12)C(F)(F)F [Example 67, (R)-N-(7-(1-methyl-1H-pyrazol-4-yl)-5-((1,1,1-trifluoropropan-2-yl)oxy)quinazolin-4-yl)benzo[d]thiazol-6-amine] | ≤ 10 | 10.1 to 50 | ≤ 10 |
| C[C@H](CN(C)C)Oc1cc(N2CC[C@H](C(C)(C)O)C2)cc2ncnc(Nc3ccc4ncsc4c3)c12 [Example 181, 2-((S)-1-(4-(benzo[d]thiazol-6-ylamino)-5-(((R)-1-(dimethylamino)propan-2-yl)oxy)quinazolin-7-yl)pyrrolidin-3-yl)propan-2-ol] | ≤ 10 | ≤ 10 | ≤ 10 |
| CN1C[C@H](Oc2cc(-c3cnn(C)c3)cc3ncnc(Nc4ccc5ncsc5c4)c23)[C@@H](F)C1 [Example 383, N-(5-(((3S,4S)-4-fluoro-1-methylpyrrolidin-3-yl)oxy)-7-(1-methyl-1H-pyrazol-4-yl)quinazolin-4-yl)benzo[d]thiazol-6-amine] | ≤ 10 | 10.1 to 50 | ≤ 10 |
| CO[C@@H]1CCN(C)C[C@H]1Oc1cc(-c2cnn(C)c2)cc2ncnc(Nc3ccc4ncsc4c3)c12 (single isomer, unassigned) [Example A40] | ≤ 10 | 10.1 to 50 | ≤ 10 |
| C[C@@H](Oc1cc(-c2cnn(C)c2)cc2ncnc(Nc3ccc4ncsc4c3)c12)C(CO)CN(C)C (mixture of isomers) [Example A55, rac-(3R)-3-((4-(benzo[d]thiazol-6-ylamino)-7-(1-methyl-1H-pyrazol-4-yl)quinazolin-5-yl)oxy)-2-((dimethylamino)methyl)butan-1-ol] | ≤ 10 | ≤ 10 | ≤ 10 |

Continued, values first:

| IC50 [1] [nM] | IC50 [2] [nM] | IC50 [3] [nM] | Compound |
| --- | --- | --- | --- |
| ≤ 10 | 10.1 to 50 | ≤ 10 | Cn1cc(-c2cc(OC3COCC3(F)F)c3c(Nc4ccc5ncsc5c4)ncnc3c2)cn1 (stereo not drawn) [Example 14, N-(5-((4,4-difluorotetrahydrofuran-3-yl)oxy)-7-(1-methyl-1H-pyrazol-4-yl)quinazolin-4-yl)benzo[d]thiazol-6-amine] |
| > 50.1 | 10.1 to 50 | 10.1 to 50 | CN1CCN(CC#Cc2cc(OC3CCOCC3)c3c(Nc4ccc5ncsc5c4F)ncnc3c2)CC1 [Example A24, 7-fluoro-N-(7-(3-(4-methylpiperazin-1-yl)prop-1-yn-1-yl)-5-((tetrahydro-2H-pyran-4-yl)oxy)quinazolin-4-yl)benzo[d]thiazol-6-amine] |
| ≤ 10 | 10.1 to 50 | ≤ 10 | CC(Oc1cc(-c2cn(C)nc2OC(F)F)cc2ncnc(Nc3ccc4ncsc4c3)c12)C1COC1 (single isomer, unassigned) [Example 172] |
| ≤ 10 | ≤ 10 | ≤ 10 | Cn1cc(-c2cc(OC3CCN(C4COC4)CC3)c3c(Nc4ccc5ncsc5c4F)ncnc3c2)cn1 [Example 315, 7-fluoro-N-(7-(1-methyl-1H-pyrazol-4-yl)-5-((1-(oxetan-3-yl)piperidin-4-yl)oxy)quinazolin-4-yl)benzo[d]thiazol-6-amine] |
| ≤ 10 | ≤ 10 | ≤ 10 | C[C@@H](Oc1cc(N2CC3(COC3)C2)cc2ncnc(Nc3ccc4ncsc4c3)c12)C1COC1 [Example 204, (R)-N-(5-(1-(oxetan-3-yl)ethoxy)-7-(2-oxa-6-azaspiro[3.3]heptan-6-yl)quinazolin-4-yl)benzo[d]thiazol-6-amine] |
| 10.1 to 50 | 10.1 to 50 | ≤ 10 | CN1CC[C@H](Oc2cc(-c3cn(C)nc3OC(F)F)cc3ncnc(Nc4ccc5ncsc5c4)c23)[C@@H](F)C1 (single isomer, unassigned) [Example 369] |
| ≤ 10 | 10.1 to 50 | ≤ 10 | Cn1cc(-c2cc(OC[C@@H]3CCCO3)c3c(Nc4ccc5ncsc5c4)ncnc3c2)cn1 [Example 32, (S)-N-(7-(1-methyl-1H-pyrazol-4-yl)-5-((tetrahydrofuran-2-yl)methoxy)quinazolin-4-yl)benzo[d]thiazol-6-amine] |
| ≤ 10 | 10.1 to 50 | ≤ 10 | CN1CC[C@H](Oc2cc(-c3cn(C)nc3OC(F)F)cc3ncnc(Nc4ccc5ncsc5c4)c23)[C@@H](F)C1 (single isomer, unassigned) [Example 368] |
| ≤ 10 | ≤ 10 | ≤ 10 | Cn1cc(-c2cc(OC3CCN(C4COC4)CC3)c3c(Nc4ccc5ncsc5c4)ncnc3c2)cn1 [Example 318, N-(7-(1-methyl-1H-pyrazol-4-yl)-5-((1-(oxetan-3-yl)piperidin-4-yl)oxy)quinazolin-4-yl)benzo[d]thiazol-6-amine] |
